According to US7342010B2, “2-thiaquinolizidines and process for the preparation thereof” (Board of Trustees of Michigan State University, priority 2004, dated 2008):
Where two headings read alike, the source gives them in different places.

Key:
β-glucosidase (almond) [1] = settings: cited from earlier work
[2] = molecular target: T1, α-galactosidase (green coffee beans) (Coffea arabica, UniProt Q42656); settings: literature values; n.i. = no inhibition observed; cited from earlier work
T1 construct: purchased Sigma

α-glucosidase (yeast) [3] = settings: cited from earlier work; for Ki: literature values, read-out: Inhibition activity Ki, α-glucosidase (yeast)
[4] = molecular target: T2, β-galactosidase (E. coli) (Escherichia coli, UniProt P00722); assay: Inhibition of E. coli β-galactosidase, nitrophenyl glycoside hydrolysis; format: biochemical
T2 construct: purchased Sigma
Description: (§1) The inhibitory activity of 3 against a series of enzyme was tested. Enzymes were assayed according to standard procedures (Halvorson, H. O., Methods Enzymol. 8, 55 (1966)) by following the hydrolysis of nitrophenyl glycosides spectrophotometrically or by evaluating the reducing sugar formed in some glucosidase assays. The enzymes used were α-glucosidase (yeast and rice), β-glucosidase (almond), α-galactosidase (green coffee beans), β-galactosidase (E. coli) and α-mannosidase (jack beans).
(§2) Inhibitory potency of 3 was determined by spectrophotometrically measuring the residual hydrolytic activities of the glycosidases against the corresponding nitrophenyl α- or β-D-glucopyranoside. The glycosidases used were α-glucosidase (yeast), α-glucosidase (rice), β-glucosidase (almond), α-galactosidase (green coffee beans), β-galactosidase (E. coli) and α-mannosidase (jack beans). All enzymes were purchased from Sigma. Each assay was performed in a phosphate or an acetate buffer at the optimal pH for each enzyme. Inhibition studies (except rice α-glucosidase) were performed by adding the inhibitor to a final concentration of 0.05 mM to 11 mM to the respective buffer solutions along with enzyme. The solutions were incubated at 37° C. before adding substrates to the solutions. The absorbance of the resulting mixture was determined at 400 nm (for p-nitrophenol).

[5] = molecular target: T3, α-mannosidase (jack beans) (Canavalia ensiformis, UniProt C0HJB3); assay: Inhibition of jack bean α-mannosidase, nitrophenyl glycoside hydrolysis; format: biochemical
T3 construct: purchased Sigma
T3 sequence (C0HJB3 1-562 limits assumed): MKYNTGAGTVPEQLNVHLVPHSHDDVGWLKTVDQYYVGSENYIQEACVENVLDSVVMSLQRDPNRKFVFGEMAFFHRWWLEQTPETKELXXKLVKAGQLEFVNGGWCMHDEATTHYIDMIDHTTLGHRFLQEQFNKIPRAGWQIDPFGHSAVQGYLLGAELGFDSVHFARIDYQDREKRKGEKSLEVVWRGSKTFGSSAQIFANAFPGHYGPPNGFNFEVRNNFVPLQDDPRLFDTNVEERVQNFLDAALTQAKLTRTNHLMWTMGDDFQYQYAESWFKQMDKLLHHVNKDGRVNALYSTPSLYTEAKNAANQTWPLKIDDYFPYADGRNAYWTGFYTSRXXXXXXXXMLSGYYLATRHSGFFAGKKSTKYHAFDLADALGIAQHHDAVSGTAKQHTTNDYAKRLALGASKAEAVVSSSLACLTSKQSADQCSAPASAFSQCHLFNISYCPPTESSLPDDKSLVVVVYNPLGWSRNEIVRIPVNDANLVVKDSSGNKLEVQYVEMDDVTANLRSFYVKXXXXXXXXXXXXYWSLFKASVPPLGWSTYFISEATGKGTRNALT
T3 sequence (C0HJB3 563-981 limits assumed): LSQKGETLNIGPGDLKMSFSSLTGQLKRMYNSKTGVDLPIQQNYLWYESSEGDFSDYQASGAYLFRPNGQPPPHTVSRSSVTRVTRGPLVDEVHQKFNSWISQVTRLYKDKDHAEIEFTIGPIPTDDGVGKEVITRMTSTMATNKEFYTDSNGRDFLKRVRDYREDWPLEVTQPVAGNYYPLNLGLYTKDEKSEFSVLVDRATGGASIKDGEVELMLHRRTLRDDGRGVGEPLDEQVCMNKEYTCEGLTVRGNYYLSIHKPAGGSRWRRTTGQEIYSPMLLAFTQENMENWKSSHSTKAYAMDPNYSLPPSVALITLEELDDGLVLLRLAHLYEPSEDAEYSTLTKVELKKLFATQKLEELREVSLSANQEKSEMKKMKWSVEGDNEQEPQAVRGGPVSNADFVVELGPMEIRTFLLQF
Description: as §1, §2

α-glucosidase (rice) [6] = molecular target: T4, α-glucosidase (rice) (Oryza sativa subsp. japonica, UniProt Q653V7); assay: Inhibition of rice α-glucosidase, maltose substrate, glucose oxidase/peroxidase coupled assay; format: biochemical
T4 construct: purchased Sigma
Description: as §1
as §2, with “Inhibition studies (except rice α-glucosidase) were performed by adding the inhibitor to a final concentration of 0.05 mM to 11 mM to the respective buffer solutions along with enzyme. The solutions were incubated at 37° C. before adding substrates to the solutions.” left out
For rice α-glucosidase inhibition, maltose was used as the substrate, and the assay was based on the glucose oxidase/peroxidase enzyme procedure. […] The absorbance of the solution was determined at 500 nm for oxidized o-dianisidine. […] The absorbance of the solution was determined at 500 nm.

α-glucosidase (yeast) [7] = system: T5, α-glucosidase (yeast); assay: Inhibition of yeast α-glucosidase, hydrolysis of p-nitrophenylglucoside followed spectrophotometrically; format: biochemical
T5 construct: other: p-nitrophenylglucoside substrate, 37° C
Description: as §1, §2

β-glucosidase (almond) [8] = assay: Inhibition of almond β-glucosidase, nitrophenyl glycoside hydrolysis; format: biochemical
Description: as §1, §2

[9] = molecular target: T1, α-galactosidase (green coffee beans); assay: Inhibition of green coffee bean α-galactosidase, nitrophenyl glycoside hydrolysis; format: biochemical
Description: as §1, §2

[10] = molecular target: T3, α-mannosidase (jack beans); settings: cited from earlier work
β-glucosidase = settings: literature, enzyme source not stated; cited from earlier work
α-glucosidase (rice) [11] = molecular target: T4, α-glucosidase (rice); settings: cited from earlier work; for Ki: literature values, read-out: Inhibition activity Ki, α-glucosidase (rice)
[12] = literature values, n.i. = no inhibition observed

T4 sequence (Q653V7 34-885): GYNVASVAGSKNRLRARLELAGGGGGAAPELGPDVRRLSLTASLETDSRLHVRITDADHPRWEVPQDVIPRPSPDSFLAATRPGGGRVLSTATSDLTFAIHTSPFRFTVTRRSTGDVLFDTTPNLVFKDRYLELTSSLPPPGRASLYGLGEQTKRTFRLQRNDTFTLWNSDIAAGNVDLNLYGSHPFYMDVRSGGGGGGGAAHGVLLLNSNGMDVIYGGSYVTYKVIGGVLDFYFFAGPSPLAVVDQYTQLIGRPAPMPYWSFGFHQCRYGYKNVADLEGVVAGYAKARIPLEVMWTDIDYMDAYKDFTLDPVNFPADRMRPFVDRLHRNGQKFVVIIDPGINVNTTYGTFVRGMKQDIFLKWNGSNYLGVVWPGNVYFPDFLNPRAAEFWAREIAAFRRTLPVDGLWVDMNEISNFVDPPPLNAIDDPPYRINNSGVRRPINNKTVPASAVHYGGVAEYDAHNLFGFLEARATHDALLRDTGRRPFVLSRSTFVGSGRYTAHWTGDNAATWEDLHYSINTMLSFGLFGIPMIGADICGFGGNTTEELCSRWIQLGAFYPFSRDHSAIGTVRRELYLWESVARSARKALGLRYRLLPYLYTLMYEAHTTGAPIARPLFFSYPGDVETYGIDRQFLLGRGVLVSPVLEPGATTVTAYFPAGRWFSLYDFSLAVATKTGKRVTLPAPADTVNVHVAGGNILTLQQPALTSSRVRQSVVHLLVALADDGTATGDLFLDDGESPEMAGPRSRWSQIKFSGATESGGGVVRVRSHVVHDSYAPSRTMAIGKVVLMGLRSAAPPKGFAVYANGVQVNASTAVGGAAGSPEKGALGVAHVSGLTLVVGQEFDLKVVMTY
T1 sequence (Q42656 16-378): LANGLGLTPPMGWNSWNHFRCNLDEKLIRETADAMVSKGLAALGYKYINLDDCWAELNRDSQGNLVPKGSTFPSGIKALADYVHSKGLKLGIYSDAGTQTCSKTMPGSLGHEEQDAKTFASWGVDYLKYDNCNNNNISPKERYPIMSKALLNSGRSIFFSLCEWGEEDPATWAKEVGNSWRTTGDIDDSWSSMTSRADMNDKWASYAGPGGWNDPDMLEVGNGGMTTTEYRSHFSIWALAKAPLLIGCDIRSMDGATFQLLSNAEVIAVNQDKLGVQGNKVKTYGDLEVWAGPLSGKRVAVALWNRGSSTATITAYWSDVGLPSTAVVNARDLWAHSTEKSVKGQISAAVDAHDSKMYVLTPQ
T2 sequence (P00722 2-1024): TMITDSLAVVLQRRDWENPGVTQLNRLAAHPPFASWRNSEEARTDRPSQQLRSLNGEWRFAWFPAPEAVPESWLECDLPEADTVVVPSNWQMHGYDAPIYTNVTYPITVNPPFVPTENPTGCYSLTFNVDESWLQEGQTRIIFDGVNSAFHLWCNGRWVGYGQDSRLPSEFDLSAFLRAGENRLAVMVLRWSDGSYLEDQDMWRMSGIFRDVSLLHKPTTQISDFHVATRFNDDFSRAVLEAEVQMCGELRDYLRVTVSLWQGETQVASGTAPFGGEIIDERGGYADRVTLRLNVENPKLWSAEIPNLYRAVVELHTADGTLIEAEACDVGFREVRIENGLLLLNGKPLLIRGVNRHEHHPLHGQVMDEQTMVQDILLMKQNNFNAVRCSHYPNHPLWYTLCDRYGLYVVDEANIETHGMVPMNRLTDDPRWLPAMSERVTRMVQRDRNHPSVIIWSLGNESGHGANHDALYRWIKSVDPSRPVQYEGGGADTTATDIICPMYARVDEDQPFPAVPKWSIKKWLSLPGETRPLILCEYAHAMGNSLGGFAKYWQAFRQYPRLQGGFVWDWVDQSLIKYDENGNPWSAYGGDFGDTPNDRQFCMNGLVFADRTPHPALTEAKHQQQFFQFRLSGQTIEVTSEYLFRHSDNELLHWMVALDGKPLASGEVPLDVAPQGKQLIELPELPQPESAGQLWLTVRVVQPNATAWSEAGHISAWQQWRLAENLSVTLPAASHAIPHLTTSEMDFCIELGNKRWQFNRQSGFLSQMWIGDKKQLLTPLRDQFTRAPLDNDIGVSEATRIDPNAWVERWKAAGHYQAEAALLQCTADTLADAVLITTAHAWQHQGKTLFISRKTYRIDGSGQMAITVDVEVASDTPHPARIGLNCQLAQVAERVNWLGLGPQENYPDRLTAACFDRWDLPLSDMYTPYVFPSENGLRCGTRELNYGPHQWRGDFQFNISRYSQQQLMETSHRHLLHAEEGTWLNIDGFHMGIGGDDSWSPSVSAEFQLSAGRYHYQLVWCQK

In the case of NC1=N[C@H](CO)[C@@H](O)[C@H](O)[C@H]1O [compound 12], the Ki (β-glucosidase (almond) [1]; [12]) is given as 8 µM, the Ki [2] is given as roughly 10 µM and the Ki (α-glucosidase (yeast) [3]) is given as roughly 10 µM.

With O[C@H]1[C@H](O)[C@@H](O)CN2CCSC[C@H]12 [Compound 3, 7(S),8(R),9(R),10(S)-Trihydroxy-2-thiaquinolizidine] the “Inhibitory activity towards β-galactosidase (E-coli), in words” value ([4]; inhibitor 0.05 mM to 11 mM) was “No inhibitory activity”, the “Inhibition activity Ki, β-galactosidase (E. Coli)” value ([4]; n.i. = no inhibition observed) was “n.i.^” and the “Inhibitory activity towards α-mannosidase (jack bean), in words” value ([5]; inhibitor 0.05 mM to 11 mM) was “No inhibitory activity”. For the same compound, the “Inhibition activity Ki, α-mannosidase (jack beans)” value ([5]; n.i. = no inhibition observed) was “n.i.^”, the “Type of inhibition, rice α-glucosidase” value (α-glucosidase (rice) [6]; FIG. 6B) was “competitive inhibition” and the Ki (α-glucosidase (rice) [6]; maltose substrate, sodium acetate buffer pH 4.0, 37° C.) was 900 µM. For the same compound, the “Type of inhibition, yeast α-glucosidase” value (α-glucosidase (yeast) [7]; double reciprocal plots, FIG. 6A) was “competitive inhibition”, the Ki (α-glucosidase (yeast) [7]; p-nitrophenylglucoside substrate, 37° C.) was 330 µM and the “Inhibitory activity towards β-glucosidase (almond), in words” value (β-glucosidase (almond) [8]; inhibitor 0.05 mM to 11 mM) was “No inhibitory activity”. For the same compound, the “Inhibition activity Ki, β-glucosidase (almond)” value (β-glucosidase (almond) [8]; n.i. = no inhibition observed) was “n.i.^b”, the “Inhibitory activity towards α-galactosidase (green coffee beans), in words” value ([9]; inhibitor 0.05 mM to 11 mM) was “No inhibitory activity” and the “Inhibition activity Ki, α-galactosidase (green coffee beans)” value ([9]; n.i. = no inhibition observed) was “n.i.^”.

For O[C@H]1[C@H](O)[C@H](O)CN2CCC[C@H](O)[C@H]12 [compound 11], the IC50 (β-glucosidase (almond) [1]; literature value, read-out: Inhibition activity IC50, β-glucosidase (almond)) is listed as greater than 2000 µM, the IC50 ([10]; literature value, read-out: Inhibition activity IC50, α-mannosidase (jack beans)) is listed as greater than 2000 µM and the “Inhibition of α-mannosidase, in words” value ([10]; literature) is listed as “extremely poor inhibition”. For the same compound, the IC50 (α-glucosidase (yeast) [3]; literature value, read-out: Inhibition activity IC50, α-glucosidase (yeast)) was greater than 2000 µM.

In the case of CC1(C)O[C@H]2[C@H](O1)[C@@H](O)CSC[C@@H]2O [compound 13], the “Activity against a β-glucosidase, in words” value (β-glucosidase) is listed as “inactive”.

For O[C@H]1[C@H](O)[C@@H](O)CN2CC[C@H](O)[C@H]12 [Compound 1, castanospermine], the Ki (α-glucosidase (rice) [11]) is listed as 0.015 µM, the “Activity against rice α-glucosidase, in words” value (α-glucosidase (rice) [11]; literature) is listed as “strongly inhibited” and the Ki (β-glucosidase (almond) [1]; [12]) is listed as 1.5 µM. For the same compound, the “Activity against almond β-glucosidase, in words” value (β-glucosidase (almond) [1]; literature) was “inhibiting”, the Ki (α-glucosidase (yeast) [3]) was greater than 1500 µM and the “Activity against yeast α-glucosidase, in words” value (α-glucosidase (yeast) [3]; literature) was “poor activity”.

For OC[C@H]1NC[C@H](O)[C@@H](O)[C@@H]1O [compound 2, deoxynojirimycin], the Ki (α-glucosidase (rice) [11]) is listed as 0.01 µM and the Ki (β-glucosidase (almond) [1]; [12]) is listed as […].

For O[C@@H]1[C@@H](O)[C@H](O)N2CCCC[C@H]2[C@H]1O [compound 10], the “Inhibition activity Ki, β-glucosidase (almond)” value (β-glucosidase (almond) [1]; [12]) is given as “n.i” and the “Inhibition activity Ki, α-galactosidase (green coffee beans)” value [2] is given as “n.i”.
